Measured values: patent US20040039062A1, “Urea, ruminally synthesizable mainly to microbial crude protein” (Agri-Nutrients Technology Group, Inc., priority 2002, published 2004)

Experiments:
[1] = Water solubility test of coated urea (5 gram sample in 200 grams distilled water at 39° C., urea dissolved after 10 hours); format: physicochemical
Method: The mixture was swirled briefly only when the sample was added and at the end of 10 hours. The percent of the urea dissolved in 10 hours was measured to be 45 by weight.

Fresh rumen fluid = assay: In-vitro urea conversion test: ruminal synthesis of urea to microbial crude protein (MCP) in rumen fluid; set-up: species or system heifer
Method: A series of urea conversion in-vitro tests were arranged using the following materials: (1) Fresh rumen fluid withdrawn via a pump through a strainer from a heifer receiving no feed for the prior two days. (2) Simulated Saliva composition of E. I. McGougal in Biochemical Journal, Vol. 43, page 106. (3) Cellulose energy source, Whatman Chromedia Microgranular Cellulose, free from other nutrient compounds. […] The in-vitro tests were run with each sample in a 250 ml Erlenmeyer flask receiving the ingredients listed as follows: [table] The test flasks were placed in a constant temperature bath operating at 39° C. Carbon dioxide was used to displace the air in the flasks. Samples amounting to 10 grams were withdrawn on an accurate time schedule with the air in the sample container replaced by carbon dioxide. The samples were immediately treated with 1 percent mercuric chloride to terminate microbial activity in the samples. The samples were analyzed for total nitrogen, ammonia nitrogen, and […] by difference.

What does the source list for NC(N)=O [Test No. 6, urea]?
urea water solubilities at 39° C. (in words) [1]: high; synthesis efficiencies to MCP (in words) (Fresh rumen fluid; after 8 hours): low; Urea Synthesized to MCP (Fresh rumen fluid; rumen fluid, 8 hours): 3.6%
